Laboratory results: US7696408B2, “Method to enhance Agrobacterium-mediated transformation of plants” (Regents of the University of Minnesota, priority 1999, dated 2010)

Legend:
[1] = test system: fava bean explants; assay: Enzymatic browning of fava bean explants; assay type: cell-based; conditions: cysteine (e.g., 400-1000 mg/l) in solid co-cultivation medium
[2] = test system: soybean cot-node explants; assay: De novo shoot production on explants at four weeks on shoot induction media; assay type: cell-based, Glycine max; conditions: for explants producing de novo shoots at four weeks: Experiment #1, Bert; for de novo shoot growth: Experiment #2, MN1301; for explants developing de novo shoots: Experiment #3, MN0901
From the text: The explants were removed from the chamber after 14 days and transferred to fresh shoot induction media containing herbicide selection. During the transfer, the hypocotyl was carefully removed from the developing shoot mass and imbedded into the media with the differentiating tissue flush with the media surface. The plates were placed back into the growth chamber for an additional 2 weeks. At the 4 week time point, explants without de novo shoot production were discarded. The cotyledons were then removed from the differentiating tissue by cutting at the base of the node and the callus trimmed before transferring into shoot elongation media containing MS salts (murashige and Skoog, 1962), MSIII iron stock, 3% sucrose, 3 mM MES, 0.8% agar, and filter sterilized B5 vitamins, 50 mg/l asparagine, 100 mg/l pyroglutamic acid, 1 mg/l zeatin riboside, 0.1 mg/l indole-acetic acid, 0.5 mg/l GA3, 100 mg/l cefotaxime, 500 mg/l ticarcillin, 1.3-5 mg/l PPT; pH 5.6). Also at this time, a percentage of the explants were sliced into about 10 sections and stained for both GUS positive sectors and GUS positive shoots. Every 2 weeks the explants were transferred into new shoot elongation media after removing dead plant tissue and the bottom of the explant cut to encourage shoot elongation of transformed shoots.
Five levels of cysteine were tested: 0 mg/l, 100 mg/l, 200 mg/l, 300 mg/l, and 400 mg/l. Cysteine was incorporated into the solid co-culture media by preparing the media as described hereinabove and dissolving the L-cysteine into the filter sterilized components. For these three experiments, no cysteine was added into the liquid co-cultivation media. To reduce experimental error, explants were placed randomly on all five different treatments and all plates within a treatment were shuffled after completion of the experiment. After co-cultivation, the explants in each treatment were placed on shoot induction media with ½ the concentration of cysteine as in the co-cultivation media. The specific details for each experiment are as follows: • 1. Experiment #1 used the Minnesota genotype Bert and Agrobacterium strain AGL1 containing the BSF16 binary plasmid. A total of 276 explants were wounded and infected with Agrobacterium. After co-cultivation, 10 explants of each treatment were immersed into GUS stain and assayed for transient expression and the remaining explants were washed and transferred to shoot induction media containing 1.33 mg/l PPT for all four weeks. De novo shoots were produced on 74% of the treatments containing 0 mg/l cysteine, 57% on 100 mg/l, 63% on 200 mg/l, 70% on 300 mg/l, and 77% on 400 mg/l at four weeks. […] Experiment #2 used the Minnesota genotype MN1301 and Agrobacterium strain AGL1 containing the BSF16 binary plasmid. A total of 229 explants were dissected, cut, and inoculated. For each cysteine-treatment, half of the explants were incubated during co-cultivation at 21-22° C. and the other half at 25° C. Five explants of each cysteine/temperature treatment were sacrificed to GUS stain and the remaining transferred to fresh shoot induction media containing 1.33 mg/l PPT for 2 weeks. The herbicide level was raised to 3.33 mg/l PPT for the second 2 weeks on shoot induction media. Because of poor de novo shoot growth (35% on 0 mg/l cysteine, 22.8% on 100 mg/l, 32% on 200 mg/l, 42% on 300 mg/l, and 28% on 400 mg/l) and contamination, all explants were sacrificed to GUS stain at the 4 week time point. • 3. Experiment #3 used the Minnesota genotype MN0901 and Agrobacterium strain AGL1 containing the BSF16 binary plasmid. Seedlings were germinated as usual, however, one half of the plates were placed at 4° C. for 24 hours before inoculation. A total of 390 explants were wounded and inoculated. For each cysteine/seedling-temperature treatment, one half of the explants were incubated during co-cultivation at 21-22° C. and the other half at 25° C. […]

## N[C@@H](CS)C(=O)O [L-cysteine]
[1]
  enzymatic browning of fava bean explants: decreased
[2]; 100 mg/l cysteine, control 74%
  explants producing de novo shoots at four weeks: 57%
[2]; 200 mg/l cysteine
  explants producing de novo shoots at four weeks: 63%
  de novo shoot growth: 32%
  explants developing de novo shoots: 54%
[2]; 300 mg/l cysteine
  explants producing de novo shoots at four weeks: 70%
  de novo shoot growth: 42%
  explants developing de novo shoots: 53%
[2]; 400 mg/l cysteine
  explants producing de novo shoots at four weeks: 77%
  de novo shoot growth: 28%
  explants developing de novo shoots: 61%
[2]; 100 mg/l cysteine, control 35%
  de novo shoot growth: 22.8%
[2]; 100 mg/l cysteine, control 64%
  explants developing de novo shoots: 53%
